The results in this text go back to patent publication US12195439B1, “C1-substituted isopropylamine fused heterocyclic mescaline derivatives” (Enveric Biosciences Canada Inc., priority 2022, dated 2025).

Experiment [1] concerns the target T1, 5-HT2C receptor (Homo sapiens, UniProt P28335).
T1 construct: host or cells: HEK-293 cells (membrane preparation)
T1 sequence (P28335 33-458): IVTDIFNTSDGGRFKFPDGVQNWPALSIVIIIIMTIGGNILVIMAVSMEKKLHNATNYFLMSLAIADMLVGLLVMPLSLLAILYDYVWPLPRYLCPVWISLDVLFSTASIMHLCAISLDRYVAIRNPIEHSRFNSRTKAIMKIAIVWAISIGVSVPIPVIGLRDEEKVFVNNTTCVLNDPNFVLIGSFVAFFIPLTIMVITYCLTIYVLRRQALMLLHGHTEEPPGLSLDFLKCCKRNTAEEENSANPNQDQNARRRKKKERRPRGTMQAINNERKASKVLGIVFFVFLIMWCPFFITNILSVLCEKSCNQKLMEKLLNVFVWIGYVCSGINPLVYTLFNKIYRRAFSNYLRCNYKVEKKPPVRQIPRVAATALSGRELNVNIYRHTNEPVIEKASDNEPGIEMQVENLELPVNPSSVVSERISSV
The experiment can be described thus: Eurofins Cerep competition binding assay at 5-HT2C receptor. The following applies: 10 μM test ligand, [125I](±)DOI, recombinant receptor from HEK-293 cells; for inhibition at 10 µM: read-out: HT2C, percent of control-specific binding.

In experiment [2] the target is T2, MT1 receptor (Homo sapiens, UniProt P48039).
T2 construct: host or cells: CHO cells (membrane preparation)
The experiment in a line: Eurofins Cerep competition binding assay at MT1 receptor. Conditions: for MT1, percent of control-specific binding: 10 μM test ligand, [125I]2-iodomelatonin, recombinant receptor from CHO cells.

In experiment [3] the target is T3, 5-HT2B receptor (Homo sapiens, UniProt P41595).
T3 construct: host or cells: CHO cells (membrane preparation)
The experiment in a line: Eurofins Cerep competition binding assay at 5-HT2B receptor. Conditions: 10 μM test ligand, [3H]mesulergine, recombinant receptor from CHO cells; for inhibition at 10 µM: read-out: HT2B, percent of control-specific binding.

The target of experiment [4] is T4, 5-HT1A receptor (Homo sapiens, UniProt P08908).
T4 construct: purchased Perkin Elmer 6110501400UA
T4 sequence (P08908 1-422): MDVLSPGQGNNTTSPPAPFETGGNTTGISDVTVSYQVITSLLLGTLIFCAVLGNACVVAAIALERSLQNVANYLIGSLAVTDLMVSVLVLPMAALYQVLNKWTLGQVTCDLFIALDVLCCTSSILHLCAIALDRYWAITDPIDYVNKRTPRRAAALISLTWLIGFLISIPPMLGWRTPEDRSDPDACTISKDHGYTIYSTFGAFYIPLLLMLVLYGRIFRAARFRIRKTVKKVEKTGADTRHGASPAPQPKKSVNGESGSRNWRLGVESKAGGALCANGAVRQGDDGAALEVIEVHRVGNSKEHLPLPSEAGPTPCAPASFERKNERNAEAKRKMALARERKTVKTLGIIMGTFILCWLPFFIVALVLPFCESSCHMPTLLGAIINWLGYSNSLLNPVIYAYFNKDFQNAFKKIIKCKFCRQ
The experiment can be described thus: 5-HT1A receptor radioligand competition assay (SPA). In kind it is binding. The following applies: 5-HT1A, Ki, competition with 0.5 nM [3H]8-hydroxy-DPAT, membranes containing 5-HT1A.

Experiment [5] has as its target T5, 5-HT7 receptor (Homo sapiens, UniProt P34969).
T5 construct: host or cells: HEK-293 cells (membrane preparation)
The experiment can be described thus: Eurofins Cerep competition binding assay at 5-HT7 receptor. Conditions: 10 μM test ligand, [3H]LSD, recombinant receptor from HEK-293 cells; for inhibition at 10 µM: read-out: HT7, percent of control-specific binding.

For experiment [6], the target named is T6, dopamine transporter (DAT) (Homo sapiens, UniProt Q01959).
T6 construct: host or cells: CHO cells (membrane preparation)
The experiment in a line: Eurofins Cerep competition binding assay at dopamine transporter. The following applies: for DAT, percent of control-specific binding: 10 μM test ligand, [3H]BTCP, recombinant transporter from CHO cells; for inhibition at 10 µM: read-out: DAT, percent of control-specific binding, 10 μM test ligand, [3H]BTCP, recombinant transporter from CHO cells.

The target in experiment [7] is T4, 5-HT1A receptor. The experiment can be described thus: Eurofins Cerep competition binding assay at 5-HT1A receptor. Conditions: 10 μM test ligand, [3H]8-OH-DPAT, recombinant receptor from HEK-293 cells; for inhibition at 10 µM: read-out: HT1A, percent of control-specific binding.
Experiment [8] addresses T7, alpha2A receptor (Homo sapiens, UniProt P08913).
T7 construct: host or cells: CHO cells (membrane preparation)
T7 sequence (P08913 1-465): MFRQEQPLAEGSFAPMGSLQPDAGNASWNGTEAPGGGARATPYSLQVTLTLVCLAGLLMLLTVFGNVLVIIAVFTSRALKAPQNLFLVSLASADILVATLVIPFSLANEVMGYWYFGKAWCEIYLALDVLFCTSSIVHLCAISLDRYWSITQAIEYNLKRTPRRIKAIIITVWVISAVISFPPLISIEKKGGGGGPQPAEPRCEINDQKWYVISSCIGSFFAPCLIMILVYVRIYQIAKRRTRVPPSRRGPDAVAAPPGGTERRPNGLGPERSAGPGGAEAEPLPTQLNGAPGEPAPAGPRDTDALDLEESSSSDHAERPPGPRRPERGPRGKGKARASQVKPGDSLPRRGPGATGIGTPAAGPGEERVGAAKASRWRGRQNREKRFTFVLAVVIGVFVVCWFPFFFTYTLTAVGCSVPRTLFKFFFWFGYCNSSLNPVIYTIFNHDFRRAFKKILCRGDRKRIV
The experiment in a line: Eurofins Cerep competition binding assay at alpha2A receptor. Conditions: 10 μM test ligand, [3H]RX 821002, recombinant receptor from CHO cells; for inhibition at 10 µM: read-out: α-2A, percent of control-specific binding.

Experiment [9] addresses T8, norepinephrine transporter (NET) (Homo sapiens, UniProt P23975).
T8 construct: host or cells: CHO cells (membrane preparation)
The experiment in a line: Eurofins Cerep competition binding assay at norepinephrine transporter. The following applies: for NET, percent of control-specific binding: 10 μM test ligand, [3H]nisoxetine, recombinant transporter from CHO cells; for inhibition at 10 µM: read-out: NET, percent of control-specific binding, 10 μM test ligand, [3H]nisoxetine, recombinant transporter from CHO cells.

For experiment [10], the target named is T9, serotonin transporter (SERT) (Homo sapiens, UniProt P31645).
T9 construct: host or cells: CHO cells (membrane preparation)
The experiment in a line: biochemical. In kind it is binding. The following applies: for SERT, percent of control-specific binding: 10 µM; for inhibition at 10 µM: read-out: SERT, percent of control-specific binding.

Setting [11] is: read-out: MT1, percent of control-specific binding.
Where [12] appears, read: read-out: MT1, percent of control-specific binding, 10 μM test ligand, [125I]2-iodomelatonin, recombinant receptor from CHO cells.

Where two headings read alike, the source gives them in different places. Bounds are passed on as bounds.

T9 sequence (P31645 whole entry): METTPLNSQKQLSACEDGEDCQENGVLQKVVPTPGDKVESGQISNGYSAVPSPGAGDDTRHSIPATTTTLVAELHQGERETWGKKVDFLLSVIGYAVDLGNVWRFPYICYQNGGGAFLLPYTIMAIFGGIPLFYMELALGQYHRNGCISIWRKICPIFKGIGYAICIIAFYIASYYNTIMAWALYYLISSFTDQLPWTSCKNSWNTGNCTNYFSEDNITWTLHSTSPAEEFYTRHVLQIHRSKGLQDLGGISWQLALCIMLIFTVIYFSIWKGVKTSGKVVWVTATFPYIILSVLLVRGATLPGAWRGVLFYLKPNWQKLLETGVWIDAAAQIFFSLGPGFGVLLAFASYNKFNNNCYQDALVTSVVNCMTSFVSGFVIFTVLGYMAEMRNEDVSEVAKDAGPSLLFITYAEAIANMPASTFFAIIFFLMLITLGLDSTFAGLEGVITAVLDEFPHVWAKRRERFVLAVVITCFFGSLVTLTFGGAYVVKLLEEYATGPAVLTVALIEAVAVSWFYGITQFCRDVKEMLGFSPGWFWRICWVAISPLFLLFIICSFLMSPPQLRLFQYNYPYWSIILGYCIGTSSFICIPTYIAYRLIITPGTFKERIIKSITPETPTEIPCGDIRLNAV
T3 sequence (P41595 whole entry): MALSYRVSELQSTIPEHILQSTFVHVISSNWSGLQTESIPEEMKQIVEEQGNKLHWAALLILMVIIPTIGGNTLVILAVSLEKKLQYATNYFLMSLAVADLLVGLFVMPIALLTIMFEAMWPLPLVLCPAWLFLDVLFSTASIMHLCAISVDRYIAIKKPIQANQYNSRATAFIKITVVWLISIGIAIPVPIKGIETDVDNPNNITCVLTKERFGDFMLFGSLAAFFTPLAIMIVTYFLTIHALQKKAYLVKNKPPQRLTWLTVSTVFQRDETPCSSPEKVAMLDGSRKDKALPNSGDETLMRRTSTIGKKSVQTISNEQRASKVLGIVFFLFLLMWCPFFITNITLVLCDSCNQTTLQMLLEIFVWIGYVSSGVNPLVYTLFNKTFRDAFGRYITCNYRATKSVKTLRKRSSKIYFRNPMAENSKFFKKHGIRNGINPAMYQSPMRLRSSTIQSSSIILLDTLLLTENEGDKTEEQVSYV
T6 sequence (Q01959 whole entry): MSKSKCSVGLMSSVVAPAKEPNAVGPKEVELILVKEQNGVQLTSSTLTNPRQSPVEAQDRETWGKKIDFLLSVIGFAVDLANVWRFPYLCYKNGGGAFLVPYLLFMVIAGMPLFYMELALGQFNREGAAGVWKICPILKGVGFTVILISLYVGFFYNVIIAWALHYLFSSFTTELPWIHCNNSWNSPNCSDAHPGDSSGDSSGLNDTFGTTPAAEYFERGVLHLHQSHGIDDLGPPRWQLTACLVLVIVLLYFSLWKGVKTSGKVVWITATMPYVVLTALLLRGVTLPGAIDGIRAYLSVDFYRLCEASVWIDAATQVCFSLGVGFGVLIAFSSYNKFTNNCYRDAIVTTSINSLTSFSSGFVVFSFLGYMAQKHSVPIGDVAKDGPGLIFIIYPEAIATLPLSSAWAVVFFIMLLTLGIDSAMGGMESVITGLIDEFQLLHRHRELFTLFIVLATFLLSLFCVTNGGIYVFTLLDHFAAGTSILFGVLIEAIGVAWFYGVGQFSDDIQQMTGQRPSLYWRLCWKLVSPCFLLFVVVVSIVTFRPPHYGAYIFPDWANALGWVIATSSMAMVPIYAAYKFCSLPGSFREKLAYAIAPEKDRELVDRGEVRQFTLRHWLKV
T5 sequence (P34969 whole entry): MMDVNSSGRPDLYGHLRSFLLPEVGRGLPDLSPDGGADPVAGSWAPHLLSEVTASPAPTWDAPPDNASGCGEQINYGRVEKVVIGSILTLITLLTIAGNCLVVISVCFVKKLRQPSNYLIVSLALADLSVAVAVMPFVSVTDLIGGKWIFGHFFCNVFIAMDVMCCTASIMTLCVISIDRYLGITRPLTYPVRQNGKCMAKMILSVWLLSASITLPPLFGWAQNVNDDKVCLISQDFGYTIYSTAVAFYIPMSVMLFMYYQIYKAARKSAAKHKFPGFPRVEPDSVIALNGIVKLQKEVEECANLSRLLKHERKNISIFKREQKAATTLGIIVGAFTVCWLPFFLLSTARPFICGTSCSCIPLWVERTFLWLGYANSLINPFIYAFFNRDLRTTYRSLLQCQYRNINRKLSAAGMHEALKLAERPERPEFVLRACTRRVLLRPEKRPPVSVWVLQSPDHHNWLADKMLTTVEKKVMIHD
T2 sequence (P48039 whole entry): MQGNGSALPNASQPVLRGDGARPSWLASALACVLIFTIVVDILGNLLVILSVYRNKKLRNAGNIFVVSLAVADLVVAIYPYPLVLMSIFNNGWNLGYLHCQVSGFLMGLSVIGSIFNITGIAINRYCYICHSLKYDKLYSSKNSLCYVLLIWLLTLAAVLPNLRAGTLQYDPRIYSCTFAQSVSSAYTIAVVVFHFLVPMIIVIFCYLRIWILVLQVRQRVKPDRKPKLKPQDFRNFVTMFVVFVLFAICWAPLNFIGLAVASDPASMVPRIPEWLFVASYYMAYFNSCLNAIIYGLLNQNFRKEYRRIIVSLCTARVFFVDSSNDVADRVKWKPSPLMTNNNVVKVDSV
T8 sequence (P23975 whole entry): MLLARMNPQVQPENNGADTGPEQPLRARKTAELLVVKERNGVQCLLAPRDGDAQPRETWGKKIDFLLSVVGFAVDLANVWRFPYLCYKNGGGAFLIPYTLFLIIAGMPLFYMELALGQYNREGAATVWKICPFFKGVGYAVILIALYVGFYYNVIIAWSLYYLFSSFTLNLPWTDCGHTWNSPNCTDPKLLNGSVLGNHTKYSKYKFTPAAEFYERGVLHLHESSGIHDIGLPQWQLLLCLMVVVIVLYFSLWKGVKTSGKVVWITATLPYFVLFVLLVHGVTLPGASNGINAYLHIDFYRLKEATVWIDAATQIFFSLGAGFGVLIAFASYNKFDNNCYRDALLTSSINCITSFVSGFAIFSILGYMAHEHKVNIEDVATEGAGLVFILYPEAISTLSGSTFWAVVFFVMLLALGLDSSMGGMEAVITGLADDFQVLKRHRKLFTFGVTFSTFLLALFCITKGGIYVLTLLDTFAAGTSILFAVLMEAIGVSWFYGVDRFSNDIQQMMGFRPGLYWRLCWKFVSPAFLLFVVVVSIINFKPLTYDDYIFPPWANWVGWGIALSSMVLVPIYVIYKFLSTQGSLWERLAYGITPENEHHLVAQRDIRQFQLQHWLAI

Regarding `CC(C(O)c1ccc2c(c1)OCO2)N(C)Cc1ccccc1` (single isomer, unassigned) [B(III) as diast. (iv)], in experiment [1] (10 µM), the “HT2C, percent of control-specific binding” value is on record as 14%. Moreover, the “MT1, percent of control-specific binding” value in [2] (10 µM) was found to be 15%. In [3] (10 µM), the “HT2B, percent of control-specific binding” value was 28%. Affinity in [4] was put at a Ki of 16.9 µM. Further, the “HT7, percent of control-specific binding” value in experiment [5] (10 µM) turned out to be 23%. Also, the “DAT, percent of control-specific binding” value in [6] (10 µM) was determined as 76%. Further, in experiment [7] (10 µM), the “HT1A, percent of control-specific binding” value came out at 22%. Moreover, the “α-2A, percent of control-specific binding” value in experiment [8] (10 µM) was determined as 42%. The “NET, percent of control-specific binding” value in experiment [9] (10 µM) was found to be 25%. Also, in experiment [10], the “SERT, percent of control-specific binding” value is recorded as 44%.

For the molecule `COc1ccc2cccc(CCNC(C)=O)c2c1` [Agomelatine, agomelatine], the inhibition at 10 µM in [1] came out at 92%; in experiment [2] (setting [11]), 99%; in experiment [3] it was 93%; in experiment [5], 20%; in [6], 1%; in experiment [7], 58%. Moreover, the inhibition at 10 µM in experiment [8] is 2%; in [9], 1%; in experiment [10] it was 30%.

In experiment [4], `CC(C(O)c1ccc2c(c1)OCO2)N(C)Cc1ccccc1` (stereo not drawn) [B(III) as diast. (iv)] registered a Ki of 16.9 µM.

With `CC(NC(C)(C)C)C(=O)c1cccc(Cl)c1` (stereo not drawn) [Bupropion, bupropion], the inhibition at 10 µM was 1% in [1]; 83% in experiment [2] (setting [12]); -2% in [3]; 4% in experiment [5]; 92% in experiment [6]; -1% in experiment [7]. Besides, in experiment [8], the inhibition at 10 µM amounted to 2%.

Molecule `C[S+](C)[O-]` [DMSO, dimethylsulfoxide] returned a Ki in experiment [4] above 1000 µM.

For the molecule `COc1cc(CC(C)N)c(OC)cc1Br` (stereo not drawn) [DOB], the “MT1, percent of control-specific binding” value in experiment [2] was −3%. The “HT2B, percent of control-specific binding” value in experiment [3] stood at 97%. In addition, the “HT7, percent of control-specific binding” value in experiment [5] came to 65%. In [6], the “DAT, percent of control-specific binding” value came out at 3%. Also, the “HT1A, percent of control-specific binding” value in experiment [7] was 75%. For the same molecule, the “α-2A, percent of control-specific binding” value in [8] came to 66%. Further, the “NET, percent of control-specific binding” value in [9] worked out at 6%. Besides, the “SERT, percent of control-specific binding” value in experiment [10] came to 53%.

With `CNCC[C@H](Oc1cccc2ccccc12)c1cccs1` [Duloxetine, duloxetine], the inhibition at 10 µM is 92% in experiment [1]; 23% in experiment [2] (setting [12]); 95% in experiment [3]; 95% in experiment [7]; 54% in experiment [8].

In experiment [4], `CC(NCc1ccccc1)C(C)c1ccc2c(c1)OCO2` (stereo not drawn) [Ex(VI) as diast. (xi) and (xii)] came in with a Ki of 65.9 µM.

With `CN(C)CCCN1c2ccccc2CCc2ccccc21` [Imipramine, imipramine], the inhibition at 10 µM in [1] was 98%; in experiment [2] (setting [12]), 29%; in experiment [3], 94%; in experiment [5], 93%; in experiment [6], 23%; in experiment [7], 34%. Also, the inhibition at 10 µM in experiment [8] came to 57%; in experiment [9], 99%; in [10] it was 98%.

With `COc1ccc2[nH]cc(CCNC(C)=O)c2c1` [Melatonin, melatonin], the inhibition at 10 µM in [1] stood at 19%; in experiment [2] (setting [11]), 98%; in experiment [3], 52%; in experiment [5], 8%; in experiment [6], 4%; in experiment [7], 46%. The inhibition at 10 µM in [8] was -7%; in [9] it was -2%.

With `O=c1n(CCCN2CCN(c3cccc(Cl)c3)CC2)nc2ccccn12` [Trazodone, trazodone], the inhibition at 10 µM in [1] was found to be 93%; in experiment [2] (setting [12]), 14%; in [3] it was 97%; in [5], 99%; in [6] it was 24%; in [7], 97%. Moreover, the inhibition at 10 µM was 91% in experiment [8] and -1% in experiment [9].

`N#Cc1ccc2[nH]cc(CCCCN3CCN(c4ccc5oc(C(N)=O)cc5c4)CC3)c2c1` [Vilazodone, vilazodone]: the inhibition at 10 µM was found to be 92% in [1]; 84% in [2] (setting [12]); 96% in [3]; 83% in experiment [5]; 98% in experiment [6]; 99% in experiment [7]. The inhibition at 10 µM in experiment [8] was 65%; in experiment [9], 99%; in [10], 100%.

Consider `NCCc1c[nH]c2ccc(O)cc12` [serotonin], for which the inhibition at 10 µM in experiment [2] (setting [12]) was 7%; in experiment [5], 100%; in [6], 8%; in experiment [7], 100%; in experiment [8], 18%; in [9], -3%.

As to `Cc1ccc(Sc2ccccc2N2CCNCC2)c(C)c1` [vortioxetine], the inhibition at 10 µM in experiment [1] came to 99%; in [2] (setting [12]), 26%; in experiment [3], 97%; in experiment [5] it was 100%; in [6], 90%; in experiment [8], 62%. The inhibition at 10 µM came out at 99% in experiment [9] and 101% in experiment [10].

For orientation: Ki means the dissociation constant of the complex between target and ligand, obtained from inhibition or displacement. Lower therefore signals a stronger hold on the target.
